Structures are written as SMILES. pEC50, pIC50: −log10 of the molar value. Read-outs that look alike come from different tables or passages of the source.

The values that follow come from US10501479B2, “Benzenesulfonyl-asymmetric ureas and medical uses thereof” (HELSINN HEALTHCARE SA, priority 2016, dated 2019).

What all share (type): cell-based
Test [1] deals with T1, recombinant human ghrelin receptor (HEK293/GRLN) (Homo sapiens, UniProt Q92847).
T1 construct: expressed in transfected cells
Kind of test: Ghrelin inverse agonist potency (EC50) with IP-1 (IP-One HTRF) assay. The following applies: IP-1 assay. In outline:
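HEK293/GRLN cells were seeded 18-22 hours before the test, then exposed to compound in stimulation buffer for 1 hour at 37° C, 5% CO2. IP-1 was detected by IP-One HTRF (IP1-d2 plus Tb-cryptate, 1 hour RT), reading 620 and 665 nm; the inverse agonist EC50 was derived from this.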

Test [2] concerns the target T2, GHSR-1a (HEK293/GHSR1a cell line) (Homo sapiens, UniProt Q92847).
T2 construct: expressed in transfected cells; host or cells: HEK293/GHSR1a cell line
Kind of test: Ghrelin agonist potency (EC50) with calcium FLIPR assay. The settings on record: for pEC50: HEK293/GHSR1a, read-out: Activity EC50/EMax: EC50 (ghrelin agonist potency). The procedure:
Evaluation of Ghrelin Agonist (EC50) and Antagonist Potency (IC50) with Calcium FLIPR Assay:
The intracellular calcium assay was carried out in a 384-well format FLIPR™ (Molecular Device) HEK293/GHSR1a cell line. Cells were seeded 24 hr prior to the experiments at an optimal density per well. Preincubation with selected calcium dye lasted for 30-60 min at room temperature or 37° C. Test compounds, dissolved in DMSO, were added at the appropriate time and incubated for 15 min followed by the addition of ghrelin with FlexStation or FLIPR. Relative fluorescence was monitored by the FLIPR™ Molecular Device. EC50 and IC50 values were estimated from dose-response data using GraphPad Prism software. To check for GHSR-1a agonism, the compound was added at t=20 sec. and the calcium response was followed for 2 minutes. To check for GHSR-1a antagonism, the compound and Ghrelin (10 nM) were added to the cells at t=20 sec. and the calcium response was measured for 2 minutes. The potency of the antagonist was calculated by its ability to reduce the ghrelin response. Dose-response curves were made for relevant antagonists.

Test [3] addresses T2, GHSR-1a (HEK293/GHSR1a cell line). Kind of test: Ghrelin antagonist potency (IC50) with calcium FLIPR assay, ghrelin 10 nM. The method, boiled down:
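Dye preload 30-60 min, RT or 37° C; compound in DMSO. Agonist mode: compound at t=20 sec, Ca2+ read 2 min. Antagonist mode: compound + ghrelin 10 nM at t=20 sec, 2 min read. EC50/IC50 from dose-response curves.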

The mark [4] stands for this setting: HEK293/GRLN, read-out: Activity EC50 (ghrelin inverse agonist potency).
Where [5] appears, read: HEK293/GHSR1a, ghrelin 10 nM, read-out: Activity IC50 (ghrelin antagonist potency).

T2 sequence (Q92847 whole entry): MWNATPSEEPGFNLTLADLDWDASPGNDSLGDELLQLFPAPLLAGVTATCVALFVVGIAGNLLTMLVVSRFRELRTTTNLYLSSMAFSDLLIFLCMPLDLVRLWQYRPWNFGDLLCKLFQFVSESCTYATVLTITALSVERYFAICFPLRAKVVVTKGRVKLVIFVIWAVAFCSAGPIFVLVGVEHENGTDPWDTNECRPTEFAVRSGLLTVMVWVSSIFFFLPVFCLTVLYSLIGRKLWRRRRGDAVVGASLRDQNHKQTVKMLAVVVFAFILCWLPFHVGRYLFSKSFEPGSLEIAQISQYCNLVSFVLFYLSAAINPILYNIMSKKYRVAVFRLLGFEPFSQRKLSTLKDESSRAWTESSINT
T1 sequence (Q92847 whole entry): as above

Broadly, the pIC50 is −log10 of the IC50, conventionally taken in molar units. `C[C@H](NC(=O)Nc1ccc(S(=O)(=O)Nc2ccc3[nH]cnc3c2)cc1)c1cccc(Cl)c1Cl` [H1111, (S)-N-(1H-benzo[d]imidazol-5-yl)-4-(3-(1-(2,3-dichlorophenyl)ethyl)ureido) benzenesulfonamide]: the pEC50 in test [1] (inverse agonist potency, read-out: EC50 (Activity)) was 5.91. In test [2] (ghrelin agonist potency), the “EC50/EMax: EC50 (Activity)” value was above 30000 nM. Moreover, in test [3] (ghrelin antagonist potency, read-out: IC50 (Activity)), the pIC50 was 5.65.
In the case of `CC(NC(=O)Nc1ccc(S(=O)(=O)Cc2ccc3c(c2)CNC3)cc1)c1cccnc1` (stereo not drawn) [H1273, 1-(4-((isoindolin-5-ylmethyl)sulfonyl)phenyl)-3-(1-(pyridin-3-yl)ethyl)urea], the results for the pEC50 in test [1] (setting [4]) and in test [2] were 6.72 and below 4.52, respectively. The pIC50 in test [3] (setting [5]) was 5.99.
The like results for `CC(NC(=O)Nc1ccc(S(=O)(=O)Cc2ccc3c(c2)CNC3)cc1)c1ccncc1` (stereo not drawn) [H1274, 1-(4-((isoindolin-5-ylmethyl)sulfonyl)phenyl)-3-(1-(pyridin-4-yl)ethyl)urea] were, in that order, 6.16, below 4.52 and 5.80.
The like results for `CC(NC(=O)Nc1ccc(S(=O)(=O)Cc2ccc(CN3CCOCC3)cc2)cc1)c1ccccc1` (stereo not drawn) [H1275, 1-(4-((4-(morpholinomethyl)benzyl)sulfonyl)phenyl)-3-(1-phenylethyl)urea] were, in that order, 6.51, below 4.52 and 5.99.
The like results for `CC(NC(=O)Nc1ccc(S(=O)(=O)Cc2ccc3c(c2)CNC3)cc1)c1cc(N2CCOCC2)ccc1Cl` (stereo not drawn) [H1283, 1-(1-(2-chloro-5-morpholinophenyl)ethyl)-3-(4-((isoindolin-5-ylmethyl)sulfonyl)phenyl)urea] were, in that order, 6.70, below 4.52 and 6.42.
As for `CC(NC(=O)Nc1ccc(S(=O)(=O)Cc2ccc3c(c2)CN(C)C3)cc1)c1cc(N2CCOCC2)ccc1Cl` (stereo not drawn) [H1284, 1-(1-(2-chloro-5-morpholinophenyl)ethyl)-3-(4-(((2-methylisoindolin-5-yl)methyl)sulfonyl)phenyl)urea], the pEC50 in test [1] (setting [4]) is 6.43; in test [2], below 4.52. In addition, the pIC50 in test [3] (setting [5]) was 5.72.
`CC(NC(=O)Nc1ccc(S(=O)(=O)Cc2ccc3c(c2)CNC3)cc1)c1ccccn1` (stereo not drawn) [H1289, 1-(4-((isoindolin-5-ylmethyl)sulfonyl)phenyl)-3-(1-(pyridin-2-yl)ethyl)urea]: the pEC50 in test [1] (setting [4]) was 6.79; in test [2], 6.83. Besides, the pIC50 in test [3] (setting [5]) is 6.27.
In the case of `CC(NC(=O)Nc1ccc(S(=O)(=O)Cc2cccc(CN)c2)cc1)c1ccccc1` (stereo not drawn) [H1290, 1-(4-((3-(aminomethyl)benzyl)sulfonyl)phenyl)-3-(1-phenylethyl)urea], the results for the pEC50 in test [1] (setting [4]) and in test [2] were 6.14 and below 4.52, respectively. In test [3] (setting [5]), the pIC50 is 5.47.
Turning to `CC(NC(=O)Nc1ccc(S(=O)(=O)Cc2ccc3c(c2)C(=O)NC3)cc1)c1ccccc1` (stereo not drawn) [H1291, 1-(4-(((3-oxoisoindolin-5-yl)methyl)sulfonyl)phenyl)-3-(1-phenylethyl)urea], the pEC50 in test [1] (setting [4]) was 6.33; in test [2], below 4.52. The pIC50 in test [3] (setting [5]) was 5.92.
Take `CC(NC(=O)Nc1ccc(S(=O)(=O)Cc2ccc3c(c2)C(O)CC3)cc1)c1ccccc1` (stereo not drawn) [H1293, 1-(4-(((3-hydroxy-2,3-dihydro-1H-inden-5-yl)methyl)sulfonyl)phenyl)-3-(1-phenylethyl)urea]: the values for the pEC50 in test [1] (setting [4]) and in test [2] were 6.03 and below 4.52, respectively. In addition, the pIC50 in test [3] (setting [5]) was 5.25.
Consider `COc1ccc(C(C)NC(=O)Nc2ccc3c(c2)C=C(c2ccc4c(c2)CN(Cc2ccccc2)C4)S3(=O)=O)cc1` (stereo not drawn) [H1296, 1-(2-(2-benzylisoindolin-5-yl)-1,1-dioxidobenzo[b]thiophen-5-yl)-3-(1-(4-methoxyphenyl)ethyl)urea], for which the pEC50 in test [1] (setting [4]) was 5.31; in test [2], 4.88. Further, the pIC50 in test [3] (setting [5]) is below 4.52.
The like results for `COc1ccc(C(C)NC(=O)Nc2ccc(S(=O)(=O)Cc3ccc4c(c3)CNC4)cc2)cc1` (stereo not drawn) [H1298, 1-(4-((isoindolin-5-ylmethyl)sulfonyl)phenyl)-3-(1-(4-methoxyphenyl)ethyl)urea] were, in that order, 6.94, below 4.52 and 6.30.
The like results for `O=C(NCc1cccnc1)Nc1ccc(S(=O)(=O)Cc2ccc3c(c2)CNC3)cc1` [H1301, 1-(4-((isoindolin-5-ylmethyl)sulfonyl)phenyl)-3-(pyridin-3-ylmethyl)urea] were, in that order, 5.94, below 4.52 and 5.35.
For `C[C@H](NC(=O)Nc1ccc(S(=O)(=O)CC2CCNCC2)cc1)c1ccccc1` [H1303, (S)-1-(1-phenylethyl)-3-(4-((piperidin-4-ylmethyl)sulfonyl)phenyl)urea] the same measures were below 4.52, below 4.52 and below 4.52.
In the case of `CCN(CC)Cc1ccc(CS(=O)(=O)c2ccc(NC(=O)NC(C)c3ccccc3)cc2)cc1` (stereo not drawn) [H1304, 1-(4-((4-((diethylamino)methyl)benzyl)sulfonyl)phenyl)-3-(1-phenylethyl)urea], the pEC50 in test [1] (setting [4]) was 6.74; in test [2] it was below 4.52. For the same compound, in test [3] (setting [5]), the pIC50 was 6.84.
As for `CC(NC(=O)Nc1ccc(S(=O)(=O)Cc2ccc3c(c2)CN(C)C3)cc1)c1ccccn1` (stereo not drawn) [H1307, 1-(4-(((2-methylisoindolin-yl)methyl)sulfonyl)phenyl)-3-(1-(pyridin-2-yl)ethyl)urea], the figures for the pEC50 in test [1] (setting [4]) and in test [2] were 6.03 and below 4.52, respectively. Moreover, the pIC50 in test [3] (setting [5]) is 5.64.
In the case of `CC(NC(=O)Nc1ccc(S(=O)(=O)Cc2ccc3c(c2)CN(C)C3)cc1)c1cncnc1` (stereo not drawn) [H1309, 1-(4-(((2-methylisoindolin-5-yl)methyl)sulfonyl)phenyl)-3-(1-(pyrimidin-5-yl)ethyl)urea], the pEC50 in test [1] (setting [4]) was 5.73; in test [2], below 4.52. Also, the negative-log IC50 (pIC50) in test [3] (setting [5]) was 5.35.
On to `CC(=O)Oc1ccc(C(C)NC(=O)Nc2ccc(S(=O)(=O)Cc3ccc4c(c3)CNC4)cc2)cc1` (stereo not drawn) [H1310, 4-(1-(3-(4-((isoindolin-5-ylmethyl)sulfonyl)phenyl)ureido)ethyl)phenylacetate], for which the figures for the pEC50 in test [1] (setting [4]) and in test [2] were 6.74 and below 4.52, respectively. The pIC50 in test [3] (setting [5]) is 6.58.
Consider `COc1cc(N2C[C@@H](C)N[C@@H](C)C2)ccc1NS(=O)(=O)c1ccc(NC(=O)N[C@H](C)c2cccc(Cl)c2Cl)cc1` [H1362, 4-(3-((R)-1-(2,3-dichlorophenyl)ethyl)ureido)-N-(4-((cis)-3,5-dimethylpiperazin-1-yl)-2-methoxyphenyl) benzenesulfonamide], for which the pEC50 in test [2] is below 4.52. Further, the pIC50 in test [3] (setting [5]) was 5.81.
For `CC(NC(=O)Nc1ccc(S(=O)(=O)CC2CCCN(CC3CCCO3)C2)cc1)c1cccc(Cl)c1Cl` (stereo not drawn) [H1375, 1-(1-(2,3-dichlorophenyl)ethyl)-3-(4-(((1-((tetrahydrofuran-2-yl)methyl)piperidin-3-yl)methyl)sulfonyl)phenyl)urea] the same measures were below 4.52 and below 4.52.
Regarding `CC(c1ccccc1)N(C)C(=O)Nc1ccc(S(=O)(=O)Cc2ccc3c(c2)CNC3)cc1F` (stereo not drawn) [H1399, 3-(2-fluoro-4-((isoindolin-5-ylmethyl)sulfonyl)phenyl)-1-methyl-1-(1-phenylethyl)urea], in test [2], the pEC50 is below 4.52. For the same compound, the pIC50 in test [3] (setting [5]) was 5.69.
For `CC1Cc2cc(CS(=O)(=O)c3ccc(NC(=O)NC(C)c4cccc(Cl)c4Cl)c(F)c3)ccc2CN1` (stereo not drawn) [H1401, 1-(1-(2,3-dichlorophenyl)ethyl)-3-(2-fluoro-4-(((3-methyl-1,2,3,4-tetrahydroisoquinolin-6-yl)methyl)sulfonyl)phenyl)urea] the same measures were below 4.52 and 8.47.
The like results for `CC1Cc2cc(CS(=O)(=O)c3ccc(NC(=O)N(C)C(C)c4cccc(Cl)c4Cl)c(F)c3)ccc2CN1` (stereo not drawn) [H1402, 1-(1-(2,3-dichlorophenyl)ethyl)-3-(2-fluoro-4-(((3-methyl-1,2,3,4-tetrahydroisoquinolin-6-yl)methyl)sulfonyl)phenyl)-1-methylurea] were, in that order, below 4.52 and 7.12.
The like results for `CC1Cc2cc(CS(=O)(=O)c3ccc(NC(=O)N[C@@H](C)c4cccc(Cl)c4Cl)cc3)ccc2CN1` (stereo partly drawn) [H1403, 1-((S)-1-(2,3-dichlorophenyl)ethyl)-3-(4-(((3-methyl-1,2,3,4-tetrahydroisoquinolin-6-yl)methyl)sulfonyl)phenyl)urea] were, in that order, below 4.52 and 8.82.
